≈ marks a conversion by molar mass, not a printed value.
Tests used:
T98G cells = assay: MTT cytotoxicity assay, glioblastoma T98G; assay type: cell-based, human; details: MTT assay after 24 h of incubation, read-out: IC50 ± SD, T98G
Procedure: (§1) Samples of complexes (about 20 mg) were digested in a concentrated mixture of 36% HCl (1 mL) and 65% HNO3 (6 mL). The contents of Cd (II) in the solid complexes were determined with an F-AAS spectrometer (Analytik Jena, contraAA 300, Jena, Germany) with a continuous source of light and using an air/acetylene flame (Analytik Jena, contraAA 300). Absorbances were measured at the analytical spectral lines at 228.8 nm for Cd (II). The limit of quantification was 0.004 mg/L for Cd (II). The solid samples were decomposed using an Anton Paar Multiwave 3000 (Graz, Austria) closed-system instrument. Mineralization was carried out for 45 min at 240 °C under a pressure of 60 bar. The contents of carbon, hydrogen, and nitrogen were determined with an instrument from Vario Micro Company Elementar Analysensysteme GmbH (Langenselbold, Germany). FTIR spectra were recorded with an IR Tracer-100 Schimadzu Spectrometer (4000–600 cm^−1 with an accuracy of recording of 1 cm^−1, Kyoto, Japan) using KBr pellets. The thermal analyses were carried out with a Netzsch STA 449 F1 Jupiter thermoanalyzer (Netzsch-Geratebau GmbH, Selb, Germany) coupled with a Netzsch Aeolos Quadro QMS 403 mass spectrometer (Netzsch-Geratebau GmbH, Selb, Germany). The samples were heated up to 1000 °C in corundum crucibles with a heating rate of 10 °C/min in an atmosphere of synthetic air (20% O2, 80% N2). The cytotoxic effects of the compounds were evaluated using glioblastoma (T98G), neuroblastoma (SK-N-AS), and lung adenocarcinoma (A549) cell lines and normal human skin fibroblasts (CCD-1059Sk). T98G and SK-N-AS cells were cultured in high-glucose DMEM and A549 cells were cultured in DMEM/F12, while CCD-1059Sk cells were cultured in MEM. All media were supplemented with 10% (FBS), 100 U/mL of penicillin, and […] of streptomycin (PenStrep). Cells were incubated at 37 °C in a humidified atmosphere of 5% CO2. Stock solutions were prepared by dissolving the compounds in sterile dimethyl sulfoxide (DMSO) to obtain a concentration of 50 mg/mL. The cells were seeded into sterile 96-well plates (Nunc) at a density of 1 × 10^5 cells/mL. After 24 h of incubation, the medium was removed from each well, and then the cells were incubated for the next 24 h with different concentrations of the tested compounds (1–100 µg/mL) in their respective media containing 2% FBS. The cytotoxicity of the compounds was evaluated using an MTT assay, which was based on the conversion of 3-(4,5-dimethylthiazol-2-yl)-2,5-diphenyltetrazolium bromide (MTT) into dark-blue formazan crystals. Briefly, after 24 h of incubation of the cells with varying concentrations of the tested compounds, all culture media were removed from the plates. The cells were washed with PBS, and then 100 µL of medium containing 10% MTT solution (5 mg/mL) was added to each well. After 3 h of incubation, 100 µL (per well) of 10% SDS buffer solution was added to solubilize the formazan crystals. After overnight incubation, the absorbance was measured at 570 nm using a microplate reader (Epoch, BioTek Instruments). Experiments were repeated twice, and the measurements in each experiment were run in triplicate. The viability of the investigated cells was expressed as the percentage of the viability of the untreated cells, and the results were transformed into IC50 values (expressed as mean ± SD). The complexes were screened for antibacterial and antifungal activity by using the micro-dilution broth method with Mueller–Hinton broth for the growth of bacteria or Mueller–Hinton broth with 2% glucose for the growth of fungi. […]

SK-N-AS cells = assay: MTT cytotoxicity assay, neuroblastoma SK-N-AS; assay type: cell-based, human; details: MTT assay after 24 h of incubation, read-out: IC50 ± SD, SK-N-AS
Procedure: as §1

A549 cells = assay: MTT cytotoxicity assay, lung adenocarcinoma A549; assay type: cell-based, human; details: lung carcinoma A549, MTT assay after 24 h of incubation; read-out: IC50 ± SD, A549
Procedure: as §1

CCD-1059Sk cells = assay: MTT cytotoxicity assay, normal human skin fibroblasts CCD-1059Sk; assay type: cell-based; details: normal human fibroblasts CCD-1059Sk, MTT assay after 24 h of incubation; read-out: IC50 ± SD, CCD-1059-Sk
Procedure: as §1

S. aureus ATCC 25923 = assay: MIC, micro-dilution broth method; assay type: cell-based, Staphylococcus aureus; details: Gram-positive bacteria; micro-dilution broth
Procedure: as §1

[1] = test system: S. epidermidis ATCC 12228; assay: MIC, micro-dilution broth method; assay type: cell-based, Staphylococcus epidermidis; details: Gram-positive bacteria; micro-dilution broth
Procedure: as §1

M. luteus ATCC 10240 = assay: MIC, micro-dilution broth method; assay type: cell-based, Micrococcus luteus; details: Gram-positive bacteria; micro-dilution broth
Procedure: as §1

E. faecalis ATCC 29212 = assay: MIC, micro-dilution broth method; assay type: cell-based, Enterococcus faecalis; details: Gram-positive bacteria; micro-dilution broth
Procedure: as §1

B. subtilis ATCC 6633 = assay: MIC, micro-dilution broth method; assay type: cell-based, Bacillus subtilis; details: Gram-positive bacteria; micro-dilution broth
Procedure: as §1

B. cereus ATCC 10876 = assay: MIC, micro-dilution broth method; assay type: cell-based, Bacillus cereus; details: Gram-positive bacteria; micro-dilution broth
Procedure: as §1

[2] = test system: S. typhimurium ATCC 14028; assay: MIC, micro-dilution broth method; assay type: cell-based, Salmonella Typhimurium; details: Gram-negative bacteria
Procedure: as §1

E. coli ATCC 25922 = assay: MIC, micro-dilution broth method; assay type: cell-based, Escherichia coli; details: for MIC, E. coli ATCC 25922: Gram-negative bacteria
Procedure: as §1

P. mirabilis ATCC 12453 = assay: MIC, micro-dilution broth method; assay type: cell-based, Proteus mirabilis; details: for MIC, P. mirabilis ATCC 12453: Gram-negative bacteria
Procedure: as §1

K. pneumoniae ATCC 13883 = assay: MIC, micro-dilution broth method; assay type: cell-based, Klebsiella pneumoniae; details: for MIC, K. pneumoniae ATCC 13883: Gram-negative bacteria
Procedure: as §1

P. aeruginosa ATCC 9027 = assay: MIC, micro-dilution broth method; assay type: cell-based, Pseudomonas aeruginosa; details: for MIC, P. aeruginosa ATCC 9027: Gram-negative bacteria
Procedure: as §1

C. glabrata ATCC 2091 = assay: MIC, micro-dilution broth method; assay type: cell-based; details: Yeasts; micro-dilution broth with 2% glucose
Procedure: as §1

C. albicans ATCC 102231 = assay: MIC, micro-dilution broth method; assay type: cell-based, Candida albicans; details: Yeasts; micro-dilution broth with 2% glucose
Procedure: as §1

[3] = test system: C. parapsilosis ATCC 22019; assay: MIC, micro-dilution broth method; assay type: cell-based, Candida parapsilosis; details: Yeasts; micro-dilution broth with 2% glucose
Procedure: as §1

Row | Structure (SMILES) | IC50 (T98G cells) [µM] | IC50 (SK-N-AS cells) [µM] | IC50 (A549 cells) [µM] | IC50 (CCD-1059Sk cells) [µM] | MIC, S. aureus ATCC 25923 (S. aureus ATCC 25923) [µg/mL] | MIC, S. epidermidis ATCC 12228 [1] [µg/mL] | MIC, M. luteus ATCC 10240 (M. luteus ATCC 10240) [µg/mL] | MIC, E. faecalis ATCC 29212 (E. faecalis ATCC 29212) [µg/mL] | MIC, B. subtilis ATCC 6633 (B. subtilis ATCC 6633) [µg/mL] | MIC, B. cereus ATCC 10876 (B. cereus ATCC 10876) [µg/mL] | MIC, S. typhimurium ATCC 14028 [2] [µg/mL] | MIC, E. coli ATCC 25922 (E. coli ATCC 25922) [µg/mL] | MIC, P. mirabilis ATCC 12453 (P. mirabilis ATCC 12453) [µg/mL] | MIC, K. pneumoniae ATCC 13883 (K. pneumoniae ATCC 13883) [µg/mL] | MIC, P. aeruginosa ATCC 9027 (P. aeruginosa ATCC 9027) [µg/mL] | MIC, C. glabrata ATCC 2091 (C. glabrata ATCC 2091) [µg/mL] | MIC, C. albicans ATCC 102231 (C. albicans ATCC 102231) [µg/mL] | MIC, C. parapsilosis ATCC 22019 [3] [µg/mL] | also measured
1 | O.[Cl][Cd][Cl].c1cnc2[nH]c(-c3ccncc3)nc2c1 [C2, Cd(L2)Cl2∙H2O] | 65.25 ± 0.63 | 22.5 | 34.1 ± 0.55 | 44.07 ± 0.33 | 1000 | 500 | 7.8 | 125 | 0.98 | 500 | >1000 | 1000 | >1000 | >1000 | >1000 | 31.3 | 125 | 7.8 | –
2 | O.O.[Cl][Cd][Cl].c1cncc(-c2nc3cccnc3[nH]2)c1 [C3, Cd(L3)Cl2∙2H2O] | 55.7 ± 2.5 | 34.5 ± 0.41 | 47.2 ± 2.1 | 40.4 ± 0.41 | 1000 | 1000 | 7.8 | >1000 | 7.8 | >1000 | 125 | 125 | 31.3 | 250 | 125 | 31.3 | 125 | 15.6 | –
3 | Brc1cnc2[nH]c(-c3cccnc3)nc2c1.O.O.[Cl][Cd][Cl] [C4, Cd(L4)Cl2∙2H2O] | 42.5 ± 0.96 | 25.3 ± 1 | 37.3 ± 2.1 | 27.7 ± 0.9 | 1000 | 250 | 7.8 | 250 | 7.8 | 250 | 1000 | 500 | 1000 | 1000 | >1000 | 31.3 | 125 | 7.8 | –
4 | O=C(O)c1cn(C2CC2)c2cc(N3CCNCC3)c(F)cc2c1=O [Cip, ciprofloxacin, reference compound] | – | – | – | – | – | – | – | – | – | – | – | – | – | – | – | – | – | – | MIC ([2]; Salmonella enterica): 0.061 µg/mL (≈ 0.184 µM); MIC (E. coli ATCC 25922; Escherichia coli, ATCC25922, Gram-negative bacteria): 0.015 µg/mL (≈ 0.0453 µM); MIC (P. mirabilis ATCC 12453; Proteus mirabilis, ATCC12453, Gram-negative bacteria): 0.03 µg/mL (≈ 0.0905 µM); MIC (K. pneumoniae ATCC 13883; Klebsiella pneumoniae, ATCC13883, Gram-negative bacteria): 0.12 µg/mL (≈ 0.362 µM); MIC (P. aeruginosa ATCC 9027; Pseudomonas aeruginosa, ATCC9027, Gram-negative bacteria): 0.49 µg/mL (≈ 1.48 µM)

Reference: publication PMC9412362, “Design, Synthesis, and Characterization of Novel Coordination Compounds of Benzimidazole Derivatives with Cadmium” (Pharmaceutics, 2022)
